Experimental data from US20190231757A1, “COMBINATION OF SPLEEN TYROSINE KINASE INHIBITORS AND OTHER THERAPEUTIC AGENTS” (Takeda Pharmaceutical Company Limited, priority 2016, published 2019).
Values joined by “and” are separate entries in the source; they are usually repeats but may differ in a detail not shown here. Equal values may be shown once. Where a name gives a salt, the structure may show the parent alone.

Legend:
[1] = Body weight and tolerability, TMD8 gemcitabine study (Example 8); type: in vivo, mouse; conditions: alone or combined
Experimental: (§1) Experimental design: Female CB17 SCID mice (Taconic Biosciences; weight at treatment start was 19 g) were inoculated subcutaneously in the flank (cell suspension) with 5.0×10^6 TMD8 cells. Tumor growth was monitored with vernier calipers. Tumor volume was calculated using the formula V=W^2×L/2, where V=volume, W=width and L=length of the tumor. When the mean tumor volume reached approximately 215 mm^3, the animals were randomized into treatment groups (n=8/group). […] Tumor growth and body weight were measured twice per week. Tumor growth inhibition and body weight change were calculated on Day 14 of treatment.

[2] = mouse, in vivo, po, 60 mg/kg
[3] = Body weight and tolerability, A20 study (Example 1); type: in vivo, mouse; conditions: Compound A 60 mg/kg PO QD 21 d, anti-PD-1 10 mg/kg IP Q4D x3, alone or combined
[4] = test system: OCI-Ly10 human lymphoma xenografts; assay: Antitumor activity in SCID mice bearing OCI-Ly10 human lymphoma xenografts, lenalidomide combination (Example 10); type: in vivo, mouse; conditions: alone or combined
[5] = test system: WSU-Luc human lymphoma xenografts; assay: Antitumor activity in SCID mice bearing WSU-Luc human lymphoma xenografts, ibrutinib combination (Example 12); type: in vivo, mouse; conditions: Day 20, alone or combined
Experimental: The study ended on Day 20 of dosing.
Tumor growth was monitored with vernier calipers. Tumor volume was calculated using the formula V=W^2×L/2, where V=volume, W=width and L=length of the tumor. When the mean tumor volume reached approximately 190 mm^3, the animals were randomized into treatment groups (n=8/group). […] Tumor growth and body weight were measured twice per week. Tumor growth inhibition and body weight change were calculated on Day 20 of treatment.
(§2) Statistical analysis: The differences in the tumor growth trends over time between pairs of treatment groups were assessed using linear mixed effects regression models. These models account for the fact that each animal was measured at multiple time points. A separate model was fit for each comparison, and the areas under the curve (AUC) for each treatment group were calculated using the predicted values from the model. The percent decrease in AUC (dAUC) relative to the reference group was then calculated.
The change in AUC relative to the control was calculated for both single agent treatment groups as well as the combination group. […] The results can be divided into four categories: synergistic, additive, sub-additive, and antagonistic.
(§3) For this analysis, a T/C ratio was calculated for each animal by dividing the tumor measurement for the given animal by the mean tumor measurement across all control animals. The T/C ratios across a treatment group were compared to the T/C ratios of the control group using a two-tailed Welch's t-test.

sensitive cell systems = assay: Activity in sensitive cell systems; type: cell-based
[6] = test system: Ly19 human lymphoma xenografts; assay: Antitumor activity in SCID mice bearing Ly19 xenografts, rituximab combination (Example 14); type: in vivo, mouse; conditions: alone or combined
OCI-LY10 xenografts = assay: Antitumor activity in CB17 SCID mice bearing OCI-LY10 xenografts, gemcitabine combination (Example 7); type: in vivo, mouse; conditions: Day 21, alone or combined
Experimental: Tumor growth inhibition was calculated on Day 21 of the study. The last measurement was taken on Day 42 of the study.
as §1, with “20” for “19”, “4.0×10^6 OCI-Ly10” for “5.0×10^6 TMD8”, “cells.” for “cells. Tumor growth was monitored with vernier calipers.”, “199” for “215”, “into 6” for “into”, “21” for “14”
as §2, with “calculated. […] Further details regarding pairwise comparisons are provided in the Example 2.” for “calculated.”
Drug combinations were assessed for synergy using observed AUC values. The change in AUC relative to the control was calculated for both single agent treatment groups as well as the combination group. The interaction between the two compounds was then assessed by comparing the change in AUC observed in the combination group to the sum of the changes observed in both single agents. The results can be divided into four categories: synergistic, additive, sub-additive, and antagonistic. Further details regarding combination analyses are provided in the Example 2.
as §3, with “Once a final analysis was selected, the tumor measurements observed on a date pre-specified by the researcher (typically the last day of treatment) were analyzed to assess tumor growth inhibition. For” for “For”

[7] = test system: A20 mouse syngeneic B-cell lymphoma; assay: Antitumor activity in Balb/c mice bearing A20 syngeneic B-cell lymphoma (Example 1); type: in vivo
[8] = test system: Ly10 human lymphoma xenografts; assay: Antitumor activity in SCID mice bearing Ly10 xenografts, rituximab combination (Example 13); type: in vivo, mouse; conditions: alone or combined
[9] = Compound A 60 mg/kg, ibrutinib 20 mg/kg
[10] = Day 14, Compound A 60 mg/kg PO QD x14, rituximab 10 mg/kg IV QW x2
[11] = Compound A 60 mg/kg PO QD, gemcitabine 2.5 mg/kg IP Q3D
[12] = Compound A 60 mg/kg PO QD, anti-PD-1 10 mg/kg IP Q4D x3, alone or combined, Day 19
[13] = Day 21, Compound A 60 mg/kg PO QD x21, rituximab 1 mg/kg IV QW x3

Which “% BW Change (Day Maximum)” value ([1]; Compound A 60 mg/kg PO QD 14 d, gemcitabine 5 mg/kg IP Q3D x4) does the source give for `Cn1cc(-c2nc(N[C@@H]3CCCC[C@@H]3N)c(F)c3c2C(=O)NC3)cn1` [Compound A, 6-((1R,2S)-2-aminocyclohexylamino)-7-fluoro-4-(1-methyl-1H-pyrazol-4-yl)-1H-pyrrolo[3,4-c]pyridine-3 (2H)-one citrate] here?
The value was 6.4 (12) %.

What about the “Number of animals removed” value ([1]; Compound A 60 mg/kg, gemcitabine 5 mg/kg) of the same compound?
Its value is 0.

And the “Maximum mean % BWL” value [2]?
Its value is 0%.

What about the “Number of animals removed” value [3] of the same compound?
Its value is 1.

And the “% BW Change (Day Maximum)” value ([3]; maximum change within treatment period, citrate)?
The value was 15.8% and 15.8 (19) %.

What about the TGI ([4]; Day 21, Compound A 60 mg/kg PO QD x21, lenalidomide 10 mg/kg PO QD x21, citrate) of the same compound?
Its TGI is 43.6%.

What about the ΔAUC ([4]; vs vehicle, Compound A 60 mg/kg, lenalidomide 10 mg/kg) of the same compound?
The ΔAUC was 34.7 (p < 0.001).

What about the “TGI (%)” value ([5]; Compound A 60 mg/kg PO QD, ibrutinib 20 mg/kg PO QD) of the same compound?
Its value is 37.6%.

And the “Mean Tumor Volume (mm^3) ± SEM” value [5, 9]?
Its value is 680.4 ± 120.1 mm^3.

What about the T/C [5, 9] of the same compound?
Its T/C is 0.62.

And the EC50 (sensitive cell systems)?
Its EC50 is 25 to 400 nM.

What about the “Mean Tumor Volume (mm^3) ± SEM at Day 14” value [6, 10] of the same compound?
Its value is 1594.0 ± 115.6 mm^3.

What about the “TGI (%)” value [6, 10] of the same compound?
The value was 36.6%.

And the dAUC ([6]; vs vehicle, Compound A 60 mg/kg, rituximab 10 mg/kg)?
Its dAUC is 11.5.

What about the “Mean Tumor Volume (mm^3) ± SEM” value (OCI-LY10 xenografts; [11]) of the same compound?
Its value is 409.4 ± 55.2 mm^3.

What about the “TGI (%)” value (OCI-LY10 xenografts; [11]) of the same compound?
Its value is 65.5%.

What about the T/C (OCI-LY10 xenografts; Compound A 60 mg/kg, gemcitabine 2.5 mg/kg) of the same compound?
Its T/C is 0.35.

And the “Mean Tumor Volume (mm^3) ± SEM” value ([7]; Compound A 60 mg/kg PO QD 21 d, anti-PD-1 10 mg/kg IP Q4D x3, alone or combined, Day 19)?
The value was 1,582.9 ± 317.2 mm^3.

And the T/C [7, 12]?
The T/C was 0.85.

What about the “TGI (%)” value [7, 12] of the same compound?
The value was 15.3%.

What about the “dAUC (percent decrease in AUC, pairwise comparison)” value ([7]; reference 0.5% methylcellulose, Compound A 60 mg/kg, anti-PD-1 10 mg/kg, days >19 excluded) of the same compound?
Its value is 10.2.

And the “Mean Tumor Volume (mm^3) ± SEM at Day 21” value [8, 13]?
Its value is 217.6 ± 25.6 mm^3.

What about the “TGI (%)” value [8, 13] of the same compound?
The value was 76.0%.

What about the dAUC ([8]; vs vehicle, Compound A 60 mg/kg, rituximab 1 mg/kg) of the same compound?
The dAUC was 122.4.
